“And” between values parts separate entries of the source, which are not always exact repeats. Equal entries are not always repeated.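 The compound was tested at five concentrations on cells cultured in 96-well plates, with a 48-hour exposure period. Here, GI50 denotes the concentration required for 50% inhibition of growth. TGI: concentration producing complete growth inhibition.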
What was measured:
Experiment in all cases: NCI tumour cell line growth inhibition, 48 h
OVCAR-5 ovarian = test system: OVCAR-5 ovarian
SK-MEL-28 melanoma = test system: SK-MEL-28 melanoma
OVCAR-4 ovarian = test system: OVCAR-4 ovarian
SF-539 CNS = test system: SF-539 CNS
RXF 393 renal = test system: RXF 393 renal
K-562 leukemia = test system: K-562 leukemia
T-47D breast = test system: T-47D breast
SK-MEL-2 melanoma = test system: SK-MEL-2 melanoma
SW-620 colon = test system: SW-620 colon
SR leukemia = test system: SR leukemia

Row | SMILES | GI50 (OVCAR-5 ovarian) | TGI (OVCAR-5 ovarian) [µM] | GI50 (SK-MEL-28 melanoma) | TGI (SK-MEL-28 melanoma) [µM] | GI50 (OVCAR-4 ovarian) | TGI (OVCAR-4 ovarian) [µM] | GI50 (SF-539 CNS) | TGI (SF-539 CNS) [µM] | GI50 (RXF 393 renal) | TGI (RXF 393 renal) | GI50 (K-562 leukemia) [µM] | TGI (K-562 leukemia) [µM] | GI50 (T-47D breast) | TGI (T-47D breast) | GI50 (SK-MEL-2 melanoma) | TGI (SK-MEL-2 melanoma) [µM] | GI50 (SW-620 colon) | TGI (SW-620 colon) [µM] | GI50 (SR leukemia) | TGI (SR leukemia)
1 | COc1ccc(-c2cn(-c3cc(OC)c(OC)c(OC)c3)c(=O)[nH]2)cc1OC | > 100 µM | > 100 | > 100 µM | > 100 | > 100 µM | > 100 | > 100 µM | > 100 | > 100 µM | > 100 µM | > 100 | > 100 | > 100 µM | > 100 µM | > 100 µM | > 100 | > 100 µM | > 100 | > 100 µM | > 100 µM
2 | Cc1cccc(Cl)c1NC(=O)c1cnc(Nc2cc(N3CCOCC3)cc(S(C)(=O)=O)c2)s1 | 0.257 µM | > 10 | > 5.14 µM | > 10 | > 10 µM | > 10 | 0.306 µM | > 10 | 0.103 µM | 0.994 µM | 0.00569 | > 10 | 0.292 µM | > 10 µM | > 10 µM | > 10 | > 10 µM | > 10 | > 10 µM | > 10 µM
3 | C/C=C(\C)C(=O)O[C@H]1C=CC(=O)O[C@H]1COC(=O)[C@H](C)O | 18.8 µM | 39 | 3.53 µM | 11.5 | 5.97 µM | 21.5 | 9.73 µM | 23.3 | – | 7.41 µM | 3.69 | 17.6 | 3.81 µM | 19.2 µM | 15.3 µM | 41.4 | 4.28 µM | 15.1 | 2.2 µM | 13.4 µM
4 | CC1Cc2ccccc2N1C(=O)Cc1nc(N2CCOCC2)cc(=O)[nH]1 (centres undefined) | 9.09 µM and 18.2 µM | > 100 | 5.13 µM and 18.5 µM | > 100 | 28.1 µM and 31.4 µM | > 100 | 8.79 µM and 22.4 µM | > 100 | 0.277 µM and 1.4 µM | 8.17 µM and 16.2 µM | > 100 | > 100 | 1.6 µM and 3.73 µM | 42.6 µM and 99.7 µM | 37.1 µM and 49.5 µM | > 100 | 27.2 µM and 72.5 µM | > 100 | 22.6 µM and 24.4 µM | 97.3 µM and > 100 µM
5 | CC/C=C\C[C@H](O)C/C=C1/C(=O)C=C[C@@H]1C/C=C\CCCCO | 3.25 µM | 8.95 | 2.39 µM | 6.87 | 3.55 µM | 18.7 | 2.03 µM | 4.55 | 2.25 µM | 4.18 µM | 2.91 | > 100 | 2.63 µM | 11.1 µM | 5.96 µM | 22.6 | 2.98 µM | 15.2 | 1.97 µM | 16.2 µM
6 | CN(C)Cc1c(C(=O)NCCOc2ccc(C(=O)NO)cc2)oc2ccccc12 | 0.115 µM | 1.3 | 0.267 µM | 2.5 | 0.269 µM | > 71.3 | 0.385 µM | 18 | 0.197 µM | 0.643 µM | 0.307 | > 100 | 0.163 µM | 0.777 µM | 0.243 µM | 1.54 | 0.166 µM | 0.547 | 0.203 µM | 12.4 µM
7 | O=C(O)Cc1ccc(N=Nc2c(O)c(C(=O)O)cc3ccccc23)cc1 | – | > 100 | – | > 100 | – | > 100 | – | > 100 | – | > 100 µM | – | > 100 | – | > 100 µM | – | > 100 | – | > 100 | – | > 100 µM
8 | Cn1cc(C2=C(c3cn(CCCCCO)c4ccccc34)C(=O)NC2=O)c2ccccc21 | 11.8 µM | > 25 | 4.92 µM | 15.7 | 5.11 µM | 17.5 | 3.16 µM | 8.55 | 3.51 µM | 9.61 µM | 2.16 | > 25 | 6.44 µM | 16 µM | 2.83 µM | 8.15 | 3.17 µM | > 25 | 1.57 µM | 11 µM
9 | C=C1C(=O)O[C@H]2[C@H]1CC/C(CNC(=O)/C=C/c1ccccc1F)=C\CC[C@@]1(C)O[C@@H]21 | 1.9 µM | 5.15 | 1.95 µM | 6.19 | 1.66 µM | 4.57 | 1.26 µM | 2.94 | 1.24 µM | 2.7 µM | 0.577 | 7.45 | 1.74 µM | 4.53 µM | 1.7 µM | 3.52 | 0.487 µM | 1.66 | 0.482 µM | 6.88 µM
10 | O=C1CC(N2C(=O)/C(=C/C(Cl)=C\c3ccc([N+](=O)[O-])cc3)SC2=S)C(=O)N1c1ccc(O)cc1 (centres undefined) | 1.91 µM | 3.69 | 1.95 µM | 4.2 | 5.13 µM | 17.3 | 1.72 µM | 3.81 | 1.53 µM | 3.22 µM | 0.603 | 9.55 | 2.45 µM | 15.8 µM | 2.74 µM | 7.83 | 0.684 µM | 2.28 | 0.394 µM | 4.97 µM
11 | Cc1ccccc1C(C(=O)NC1CCCCC1)N(C(=O)CNc1ccc(C#N)cc1)c1cccc(F)c1 (centres undefined) | 46.6 µM | > 100 | 32.4 µM | > 100 | 9.34 µM | > 71.6 | 16.2 µM | > 59.7 | 1.84 µM | 5.6 µM | > 95.7 | > 100 | 31.4 µM | > 100 µM | 13.1 µM | 32.5 | > 100 µM | > 100 | 16.9 µM | 92.2 µM
12 | Oc1ccccc1/C=N\NC(=S)N/N=C/c1ccccc1O | 9.38 µM | > 100 | 4.14 µM | > 100 | 0.64 µM | 46.7 | 3.26 µM | 34.3 | 5.72 µM | > 100 µM | 1.59 | > 100 | 3.19 µM | 54.5 µM | 13.4 µM | 55.9 | 3.54 µM | > 100 | 1.67 µM | > 100 µM
13 | Nc1nn(C(=O)Nc2c(F)cccc2F)c2ccccc12 | > 100 µM | > 100 | 56.3 µM | > 100 | 57.8 µM | > 100 | 31.4 µM | > 100 | 20.2 µM | > 100 µM | > 100 | > 100 | 68.7 µM | > 100 µM | > 100 µM | > 100 | 38.3 µM | > 100 | 12.9 µM | > 100 µM
14 | COC(=O)c1oc2c(C(=O)/C=C/c3ccc(OC)cc3)c(OCCN3CCOCC3)ccc2c1C | 2.38 µM | 6.68 | 2.33 µM | 5.19 | 2.48 µM | > 44.2 | 1.64 µM | 4.1 | 0.0487 µM | 0.493 µM | 1.44 | 4.82 | 1.51 µM | 6.83 µM | 1.32 µM | 3.15 | 1.88 µM | 4.43 | 0.287 µM | 1.29 µM
15 | Cn1c(=O)c(Oc2ccc(F)cc2F)cc2cnc(NC3CCOCC3)nc21 | > 25 µM | > 25 | > 25 µM | > 25 | > 25 µM | > 25 | > 25 µM | > 25 | 24.3 µM | > 25 µM | > 25 | > 25 | > 25 µM | > 25 µM | > 25 µM | > 25 | > 25 µM | > 25 | > 25 µM | > 25 µM
16 | CC1(C)CCC(C)(C)c2cc(NC(=O)c3ccc(C(=O)O)cc3)ccc21 | – | > 95.2 | – | > 82.2 | – | > 100 | – | > 51 | – | > 79.9 µM | – | > 100 | – | > 100 µM | – | > 60.5 | – | > 100 | – | > 100 µM
17 | CN(C)CCS(=O)(=O)Nc1cc(-c2ccc3ncc(C#N)c(Nc4ccc(F)c(Cl)c4)c3c2)cnc1Cl | 0.303 µM | 4.9 | 0.176 µM | 1.28 | 0.382 µM | 10.3 | 0.212 µM | 1.17 | 0.0953 µM | 0.348 µM | 0.229 | > 50.5 | 0.0732 µM | 0.65 µM | 0.173 µM | 0.532 | 0.263 µM | 1.43 | 0.282 µM | > 100 µM
18 | CN(C)C=Nc1c(I)cc(I)c(CCC(=O)O)c1I | > 100 µM | > 100 | > 100 µM | > 100 | > 100 µM | > 100 | > 100 µM | > 100 | > 100 µM | > 100 µM | 59.3 | > 100 | > 100 µM | > 100 µM | > 100 µM | > 100 | > 100 µM | > 100 | > 100 µM | > 100 µM
19 | OCC1CCCC1O (centres undefined) | – | > 100 | – | > 100 | – | > 100 | – | > 100 | – | > 100 µM | – | > 100 | – | > 100 µM | – | > 100 | – | > 100 | – | > 100 µM

— PubChem BioAssay (NCI)
